Measured values published in US8865408B2, “Signature for the diagnosis of cancer aggressiveness and genetic instability” (Centre National de la Recherche Scientifique (CNRS), priority 2009, dated 2014).

Experiments:
MCF7 cells = assay: Clonogenic assay, sensitivity to Chk2 inhibitor; format: cell-based; settings: MCF7 compared with MDA-MB231 cells, 1 μM to 150 μM during 16 hours, seven more days
Procedure: FIG. 12. Effect of POLQ gene expression level on sensitivity to a Chk2 inhibitor. […] Survival is determined in a clonogenic assay. MCF7: squares; MDA-MB231: diamonds (B) POLQ expression is higher in MCF7 than in MDA-MB231. Gene expression levels are assayed by RT-PCR. C51 is a normal breast cell line.
MDA-MB231 and MCF7 breast cancer cells (ATCC) were grown in RPMI 1640+ glutamax medium. A 13.8 mM Chk2 inhibitor II Hydrate (Sigma RefC3742) stock solution was prepared by diluting the agent in DMSO (Sigma) and stored at −20° C. This solution was diluted in culture medium to give as indicated the final drug concentration. Cells were exposed to different concentrations ranging from 1 μM to 150 μM during 16 hours. Cells were washed with PBS buffer, fresh medium was added and cells were incubated for seven more days. Cells were fixed with NaCl 0.9% and stained with crystal violet (Sigma C3886). Clones containing more than 20 cells were counted. For the clonogenic assay 400 cells were seeded in six-well plates and incubated overnight. The POLQ expression was measured by real-time PCR as described above.
Cells overexpressing POLQ accumulate DNA damage. […] In order to test this hypothesis, the viability of the MCF7 and MDA-MB231 cells was determined in the presence of increasing amounts of a Chk2 inhibitor. […]

[1] = test system: POLQ overexpressing (Q1, Q2, Q3) and isogenic control (CTL2, CTL5) cells; assay: Clonogenic assay, sensitivity to alkylating agents; format: cell-based, human; settings: POLQ over-expressing clones vs isogenic controls; MMS 1 h at 37° C., MNU continuous
Procedure: FIG. 9. Sensitivity to alkylating agents. Drug sensitivity was determined by clonogenic assay. Sensitivity of POLQ overexpressing (Q1, Q2, Q3) and isogenic control (CTL2, CTL5) cells to methyl methanesulfonate (MMS) and N-methyl-N-nitrosourea (MNU). Survival is expressed as the relative plating efficiency of treated cells to the controls. […] Results are the mean+/−SD of at least three separate experiments performed in duplicate.
POLQ overexpression was immuno-detected as published (Seki et al. Nucleic Acids Res 31: 6117-6126, 2003), using purified protein as a size control.
Treatment was 1 h at 37° C. for methyl methanesulfonate (MMS) and continuous for N-methyl-N-nitrosourea (MNU) Immunodetection of γ-H2AX and PT68-CHK2 was carried out according to Rao et al. (Rao et al. Mol Cancer Res 5:713-24, 2007).
A proposed role of POLQ in BER could be that over-expressed POLQ interferes with the BER pathway and leads to an accumulation of endogenous DNA damage (including damage generated by reactive oxygen species). To test this hypothesis, we measured the sensitivity of the POLQ over-expressing cells to methyl-methanesulfonate (MMS) and Nitroso-N-methylurea (MNU) (FIG. 9), both of which induce DNA damage repaired by BER.

SMILES | sensitivity to Chk2 inhibitor (survival in clonogenic assay) (MCF7 cells) | sensitivity to Chk2 inhibitor (survival in clonogenic assay) (MCF7 cells; listed as CHK2 inhibitor) | effect of POLQ over-expression on survival to treatment [1]
NC(=O)c1ccc2nc(-c3ccc(Oc4ccc(Cl)cc4)cc3)[nH]c2c1.O [Chk2 inhibitor II Hydrate] | higher sensitivity | hypersensitive | –
COS(C)(=O)=O [MMS, methyl methanesulfonate] | – | – | did not significantly affect survival
CN(N=O)C(N)=O [MNU, N-methyl-N-nitrosourea] | – | – | did not significantly affect survival
